{"source": "patent US4005194A", "about": "“Treatment of prostatic hyperplasia” (Abbott Laboratories, priority 1975, dated 1977)", "key": {"Male rats [1]": {"tested_on": "Male rats", "conditions": "rat, in vivo", "description": "Male rats, 22 days of age, were divided into 3 groups of five animals each. The 3 groups were treated exactly as described in Example 3, but the experiment was continued for 153 days. After 115 days, these animals were bred to untreated, cycling females (each male was caged with 2 cycling females in pro-estrus for 3 consecutive days, on 3-5 separate occasions)."}, "Sprague Dawley male rat": {"tested_on": "Sprague Dawley male rat", "conditions": "in vivo", "procedure": "Ten Sprague Dawley male rat 22 days of age and weighing 45-50 grams, were randomly divided into two groups. One group received the treatment described below. After 57 days of treatment, the animals from the non-treatment control group and those from the treatment group were sacrificed. The various organs were removed, trimmed of excess tissue and weighed. Body weights were taken weekly. Group I received no treatment; Group II received 10 μg of Compound N twice each day. The results are shown in Table I with each entry showing the mean value of the respective group."}, "Male rats [2]": {"tested_on": "Male rats", "conditions": "rat, in vivo", "procedure": "In an experiment similar to that of Example 5 with Groups I and III being treated as shown, but Group II being treated like Group III except with only 1 μg of Compound N, the test was continued for 51 days, starting with 22-day old male rats, 5 animals per group. The animals were sacrificed on day 52. […] Another three groups of 5 male rats were treated in the identical fashion, but the treatment was extended from the age of 22 days to day 138 (116 days).", "remark": "listed apart in the source"}}, "data": [{"compound": "CCNC(=O)[C@@H]1CCCN1C(=O)[C@H](CCCNC(=N)N)NC(=O)[C@H](CC(C)C)NC(=O)[C@@H](CC(C)C)NC(=O)[C@H](Cc1ccc(O)cc1)NC(=O)[C@H](CO)NC(=O)[C@H](Cc1c[nH]c2ccccc12)NC(=O)[C@H](Cc1c[nH]cn1)NC(=O)[C@@H]1CCC(=O)N1", "note": "[Compound N]", "values": [{"measurement": "Breeding index (percentage of successful impregnations vs. opportunities to breed)", "setting": "Male rats [1]", "value": 23, "unit": "%"}, {"measurement": "Course of resulting pregnancies", "setting": "Male rats [1]", "value": "progressed normal"}, {"measurement": "Number of pups", "setting": "Male rats [1]", "value": 10.4}, {"measurement": "Weight of pups on day 1", "setting": "Male rats [1]", "value": 6.9, "unit": "g"}, {"measurement": "Weight of pups on day 4", "setting": "Male rats [1]", "value": 11.7, "unit": "g"}, {"measurement": "Weight of pups on day 11", "setting": "Male rats [1]", "value": 23.5, "unit": "g"}, {"measurement": "Weight of pups on day 21", "setting": "Male rats [1]", "value": 44.3, "unit": "g"}, {"measurement": "Effect on normal weight gain and growth", "setting": "Sprague Dawley male rat", "value": "essentially no effect"}, {"measurement": "Outward signs or organic changes over the control group", "setting": "Male rats [2]", "value": "None of the treated animals in this experiment showed any outward signs or organic changes"}]}]}
